Results on three compounds are retold here after patent publication US7947854B2, “Bis-cationic compounds and use thereof” (The University of Sydney, priority 2003, dated 2011).

“And” between values parts separate entries of the source, which are not always exact repeats. Equal entries are not always repeated. Where two headings read alike, the source gives them in different places.

Format in all cases: cell-based
In series [1] the test system is erythrocyte. The following applies: 37° C., 1 h. How it is done:
Human blood was collected in 10 mL Vacutainer tubes containing potassium-EDTA as anticoagulant. The blood from each vacutainer was transferred to a 50 mL centrifuge tube and the cells washed three times with calcium- and magnesium-free phosphate buffered saline (PBS) (Gibco) by centrifugation at 2000×g for 15 min. The third supernatant was clear and colourless. Cells were stored in PBS for up to two weeks. The cell suspension in PBS (0.5 mL) was mixed with a stock solution of test substance (0.5 mL) at the appropriate concentration (final erythrocyte concentration of approx. 0.5×10^9 per mL). The mixtures were incubated at 37° C. for 1 h with gentle shaking, then centrifuged at 2000×g for 10 min. The supernatant was diluted 10-fold with PBS and the optical density measured at 540 nm. The values for 0% and 100% lysis were determined by incubating cells with PBS or 0.1% Triton X-100 (in water), respectively. Assays were carried out in triplicate.

In series [2] the test system is M. canis. The experiment in a line: Susceptibility of dermatophytes, broth microdilution NCCLS M38-P. The following applies: for MIC: Microsporum canis. How it is done: (§1) Isolates were tested using the method described in the National Committee for Clinical Laboratory Standards (NCCLS) document M38-P for filamentous fungi, with dermatophyte specific modifications described by Fernández-Torres et al, Current topics in Medical Mycology, 14-19 Feb. 1999.
(§2) Five dermatophyte isolates were, namely; T. rubrum, T. mentagrophytes, T. tonsurans, M. canis and M. gypseum, all of which produce lipases and some, phospholipase. These isolates were tested by the broth microdilution method according to NCCLS document M38-P, for activity against selected antifungal agents. In addition, ten randomly selected isolates of T. tonsurans were also tested. All isolates were maintained on SDA at 28° C. Candida parapsilosis (ATCC 20019) was used as the reference control is organism.
(§3) The microdilution plates used were a single lot of RPMI 1640 basal medium (JRH bioScience Inc. Lenexa, Kans., USA) with L-glutamine and without sodium bicarbonate, buffered to pH 7.0, at 25° C., with 0.165 M (MOPS) morpholinepropanesulfonic acid (Sigma).
(§4) Powdered drugs were dissolved in 100% dimethyl sulfoxide (DMSO), at concentrations 100 times higher than the final test concentration. All compounds were prepared in 100% (DMSO). For ITRA and TRB, two-fold drug dilutions were prepared in 100% DMSO at 100 times the final concentration, followed by further dilution 1:50 in RPMI medium, to yield 2× the final strength required for the test.
(§5) Fungal cultures were subcultured onto Potato Dextrose Agar and grown at 28° C. for 7-10 days. Fungal suspensions were covered with 5 ml of distilled water, and then colonies were scraped off with cotton tipped swabs. The resulting mixture of conidia and hyphae elements was withdrawn, transferred to a sterile tube and then vortexed with glass beads. After the particles settled, the upper homogeneous suspension was collected and its density adjusted by a densitometer to a 0.5 McFarland standard at the wavelength of 530 nm (80-85% transmittance). These stock suspensions were then diluted 1:50 with RPMI medium to obtain final working inoculum concentration ranging from 0.3×10^4 to 9×10^4 CFU/ml. Inoculum quantification was performed by plating 100 μl of the 1:1000 dilution of the adjusted inoculum on SDA plates, incubated at 28° C., and after 7 days of incubation, the colonies were counted.
(§6) Testing was based on NCCLS M38-P document for testing filamentous moulds. Testing was carried out in sterile 96-well flat bottomed microtitre plate. Columns 1 and 3 to 12 were filled with 100 μl of RPMI medium, leaving column 2 unfilled. Columns 1, 2 and 3 were filled with 100 μl of 2× drug concentration. Serial dilutions were then made by transferring 100 μl from column 3 to each column up to column 11, and 100 μl from column 11 was discarded. Column 12 served as drug free growth control. Finally, 100 μl of inoculum suspension was added to all wells except column 1, which acted as sterility control (Columns 1 and 12 served as sterility and growth control respectively). Plates were incubated at 28° C. for 7 days, and read at 3 days and 7 days of incubation. All testing was performed in duplicate, on three separate occasions.
(§7) Growth in microtitre trays were read by visual inspection by using an illuminated-reversed mirror. Growth in each well was compared with the “growth control” drug free well. The MIC end point for all the drugs was chosen to be the first well with 100% growth inhibition (i.e. the lowest drug concentration inhibiting growth).

The subject of series [3] is M. gypseum. Described as above. Particulars: for MIC: Nannizzia gypsea. How it is done:
as §1, §2, §3, §4, §5, §6, §7

For series [4], the system named is T. tonsurans. Described as above. The following applies: for MIC: Trichophyton tonsurans. How it is done:
as §1, §2, §3, §4, §5, §6, §7

Series [5] deals with T. rubrum. The description is as above. The following applies: for MIC: Trichophyton rubrum. How it is done:
as §1, §2, §3, §4, §5, §6, §7

Series [6] deals with Staphylococcus aureus 25923. The experiment in a line: In vitro antibacterial activity, NCCLS M7-A6. As to the method:
(§8) Two bis-cationic compounds were tested for antibacterial activity. The assay used was that published by the National Committee for Clinical Laboratory Standards. 2003. Methods for Dilution Antimicrobial Susceptibility Tests for Bacteria That Grow Aerobically: Approved Standard—Sixth Edition. NCCLS document M7-A6. Villanova, Pa., USA.

The test system of series [7] is Streptococcus pneumonia 49619. Nature of the series: In vitro antibacterial activity, NCCLS M7-A6. Particulars: Streptococcus pneumoniae. How it is done:
as §8

Series [8] concerns Escherichia coli 25922. The experiment in a line: In vitro antibacterial activity, NCCLS M7-A6. How it is done: as §8
The subject of series [9] is MRSA (methicillin resistant S. aureus). The experiment in a line: In vitro antibacterial activity, NCCLS M7-A6. Particulars: Staphylococcus aureus, read-out: MIC MRSA (methicillin resistant S. aureus). As to the method:
as §8

Series [10] concerns VRE (Vancomycin resistant Enterococcus). Nature of the series: In vitro antibacterial activity, NCCLS M7-A6. How it is done:
as §8

In series [11] the test system is Pseudomonas ariginosa 122. The experiment in a line: In vitro antibacterial activity, NCCLS M7-A6. As to the method: as §8

With `CCCC[P+](CCCC)(CCCC)CCCCCCCCCCCC[P+](CCCC)(CCCC)CCCC` [Compound 1, 1,12-bis(tributylphosphonium)dodecane dibromide], the “Haemolytic assay (%)” value in series [1] (3.5 μM) is reported as 0%; in [1] (35 μM), 0%; in [1] (88 μM) it was 0%; in [1] (175 μM) it was 0%; in series [1] (350 μM), 0%; in [1] (700 μM), 75%.
Regarding `CCCC[N+](CCCC)(CCCC)CCCCCCCCCCCC[N+](CCCC)(CCCC)CCCC` [Compound 3, 1,12-bis(tributylammonium)do-decane dibromide], in series [2] (100% growth inhibition, 28° C.), the “MIC Range, M. canis” value lay within 3.8 to 7.6 µg/mL. For the same compound, the MIC in series [2] (100% growth inhibition, 28° C., read-out: MIC GM, M. canis) was 6.03 µg/mL; in [2] (100% growth inhibition, 28° C., read-out: MIC Mean, M. canis), 6.33 µg/mL; in series [3] (100% growth inhibition, 28° C., read-out: MIC GM, M. gypseum) it was 3.8 µg/mL; in series [3] (100% growth inhibition, 28° C., read-out: MIC Mean, M. gypseum) it was 4.75 µg/mL; in series [4] (100% growth inhibition, 28° C., read-out: MIC GM, T. tonsurans) it was 3.38 µg/mL; in series [4] (100% growth inhibition, 28° C., read-out: MIC Mean, T. tonsurans), 3.8 µg/mL. Moreover, the MIC stood at 5.37 µg/mL in series [5] (100% growth inhibition, 28° C., read-out: MIC GM, T. rubrum) and 5.7 µg/mL in [5] (100% growth inhibition, 28° C., read-out: MIC Mean, T. rubrum). Besides, the “MIC Range, M. gypseum” value in [3] (100% growth inhibition, 28° C.) fell in the range of 1.9 to 7.6 µg/mL. Besides, the “MIC Range, T. tonsurans” value in series [4] (100% growth inhibition, 28° C.) lay in the range of 1.9 to 7.6 µg/mL. Moreover, the “MIC Range, T. rubrum” value in series [5] (100% growth inhibition, 28° C.) lay in the range of 3.8 to 7.6 µg/mL.
As for `CCCC[N+](CCCC)(CCCC)CCCCCCCCCCCC[N+](CCCC)(CCCC)CCCC` [1,12-Bis-(tributylammonium)dodecane dichloride], the “Haemolytic assay (%)” value was 0% in series [1] (3.5 μM); 0% in series [1] (35 μM); 0% in [1] (88 μM); 5% in [1] (175 μM); 100% in series [1] (350 μM). Also, the minimal inhibitory concentration (MIC) in series [2] (Table 9, read-out: MIC M. canis) was 5.7 µg/mL and 9.4 µM; in series [3] (Table 9, read-out: MIC M. gypseum), 3.8 µg/mL and 6.3 µM; in series [4] (Table 9, read-out: MIC T. tonsurans) it was 3.8 µg/mL and 6.2 µM; in series [5] (Table 9, read-out: MIC T. rubrum), 5.7 µg/mL and 9.4 µM; in [6], 3.3 µg/mL and 5.5 µM; in series [7], 0.73 µg/mL and 1.2 µM. Further, the minimum inhibitory concentration (MIC) is 13.4 µg/mL and 22 µM in series [8]; 3.3 µg/mL and 5.5 µM in series [9]; 1.6 µg/mL and 2.7 µM in series [10]; 48 µg/mL and 80 µM in series [11].
